Laboratory results from US20180369203A1, “METHODS OF TREATING CANCER BY ADMINISTERING A MEK INHIBITOR IN COMBINATION WITH A PROTEASOME INHIBITOR” (The Jackson Laboratory, priority 2015, published 2018).

Tested on: amyloid oligomers (AOs)
Test: Amyloid oligomer ELISA (A11) in murine cells (primary MEFs, NIH3T3)
Assay type: cell-based, mouse
Conditions: different concentrations of Bortezomib, 24 hrs
Method: FIGS. 5A-Y show MEK and proteasome inhibition provoke protein aggregation and amyloidogenesis. (A-B) WM115 cells treated with 20 nM AZD6244, 100 nM Bortezomib, or both for 24 hr were stained with Lys48-specific ubiquitin antibodies. Arrowheads mark ubiquitin-positive aggregates. Scale bar: 10 μm. Amounts of aggregates per cell were quantitated using ImageJ (median, n≥100, ANOVA). (C-F) Following transfection with polyQ79 plasmids alone or with both polyQ79 and HSF1^S326D plasmids for one day, HEK293T cells were treated with inhibitors as described in (A-B). Cells were either analyzed for aggregate size or stained with 10 μM ThT. (G) Treated tumor cell lines were stained with 10 μM ThT. Geometric means were used to calculate fold changes in ThT fluorescence intensity and the log 2(FC) values were presented as a heat map. […] Following treatments, AOs were quantitated by ELISA using A11 antibodies (mean±SD, n=3, ANOVA). (I) Intrinsic AOs were detected in human tumor cell lines (mean±SD, n=3, ANOVA). […] Amyloids were quantitated by ELISA (mean±SD, n=3, Student's t-test). […] AF formation was monitored by ThT binding (mean±SD, n=3, ANOVA). […] Amyloids were quantitated (mean±SD, n=3, Student's t-test). […] Viable cells were quantitated by CellTiter® blue (mean±SD, n=6, Student's t-test). […] Viable cells were quantitated (mean±SD, n=6, ANOVA). […]
This figure is related to FIG. 5. […] (C) Quantitation of protein aggregate size. […]

CC(C)C[C@H](NC(=O)[C@H](Cc1ccccc1)NC(=O)c1cnccn1)B(O)O [Bortezomib, bortezomib]
endogenous amyloid oligomers in NIH3T3 cells: capable of inducing amyloidogenesis
